These results are taken from US9951041B2, “Crystalline C21H22Cl2N4O2 malonate” (BIOMED VALLEY DISCOVERIES, INC., priority 2015, dated 2018).

In brackets after ≈: the same amount, converted by molar mass.

A short description of data set [1]: Aqueous dissolution/solubility in fasting state simulated gastric fluid (FaSSGF) pH 1.6. As to conditions: for Conc (solubility): pH 1.6 FaSSGF buffer, ambient temperature, shaken. The text has this: Samples of 4-(5-Chloro-2-isopropylaminopyridin-4-yl)-1H-pyrrole-2-carboxylic acid [1-(3-chlorophenyl)-2-hydroxyethyl]amide Form C and 4-(5-Chloro-2-isopropylaminopyridin-4-yl)-1H-pyrrole-2-carboxylic acid [1-(3-chlorophenyl)-2-hydroxyethyl]amide malonate Form A were each shaken at ambient temperature in fasting state simulated gastric fluid (FaSSGF) pH 1.6 for 30. Concentration of 4-(5-Chloro-2-isopropylaminopyridin-4-yl)-1H-pyrrole-2-carboxylic acid [1-(3-chlorophenyl)-2-hydroxyethyl]amide was measured at 5, 15 and 30 minutes.

The nature of data set [2]: Aqueous dissolution/solubility in fasting state simulated intestinal fluid (FaSSIF) pH 6.5 after 30 min in FaSSGF. Format: physicochemical. Conditions: pH 6.5 FaSSIF buffer, after 30 min FaSSGF. The method, then: After 30 minutes, the samples were removed from FaSSGF, placed in fasting state simulated intestinal fluid (FaSSIF) pH 6.5, with shaking, for an additional 5 hours.

Data set [3] can be described thus: Pharmacokinetic evaluation in male beagles, two-way cross-over, oral gavage. The format is in vivo. The text has this: […]. […] […]
Where [4] appears, read: pH 1.6, fassgf or other biorelevant, thermodynamic from solid.

On to `CC(C)Nc1cc(-c2c[nH]c(C(=O)NC(CO)c3cccc(Cl)c3)c2)c(Cl)cn1` (stereo not shown) [Form C, 4-(5-Chloro-2-isopropylaminopyridin-4-yl)-1H-pyrrole-2-carboxylic acid [1-(3-chlorophenyl)-2-hydroxyethyl]amide Form C], for which the “Conc (solubility)” value in data set [1] (15 min) is 101.35 µg/mL; in data set [1] (30 min), 136.97 µg/mL; in data set [2] (30 min), 169.89 µg/mL; in data set [2] (120 min), 332.68 µg/mL; in data set [2] (270 min), 128.38 µg/mL; in data set [2] (300 min), 154.70 µg/mL. In addition, in data set [3] (male beagles, single dose 5 mg/kg by oral gavage, plasma 0-24 hours), the “coefficient of variation (CV) of average area under the curve (AUC)” value worked out at 39%.

For `CC(C)Nc1cc(-c2c[nH]c(C(=O)N[C@H](CO)c3cccc(Cl)c3)c2)c(Cl)cn1` [Malonate Form A, 4-(5-Chloro-2-isopropylaminopyridin-4-yl)-1H-pyrrole-2-carboxylic acid [1-(3-chlorophenyl)-2-hydroxyethyl]amide malonate Form A], in data set [1] (setting [4]), the solubility at 5 min was 381 µg/mL (≈ 878 µM), the solubility at 15 min came to 385 µg/mL (≈ 889 µM) and the solubility at 30 min came to 369 µg/mL (≈ 851 µM). The solubility at 10 min in data set [2] (fasting state simulated intestinal fluid (FaSSIF), thermodynamic from solid, 10 min, read-out: Conc (solubility)) is 63.3 µg/mL (≈ 146 µM). Further, the solubility at 30 min in data set [2] (fasting state simulated intestinal fluid (FaSSIF), thermodynamic from solid, 30 min, read-out: Conc (solubility)) was 110 µg/mL (≈ 254 µM). For the same molecule, the solubility at 60 min in data set [2] (fasting state simulated intestinal fluid (FaSSIF), thermodynamic from solid, 60 min, read-out: Conc (solubility)) is 114 µg/mL (≈ 263 µM). Moreover, the solubility at 90 min in data set [2] (fasting state simulated intestinal fluid (FaSSIF), thermodynamic from solid, 90 min, read-out: Conc (solubility)) is 115 µg/mL (≈ 266 µM). In addition, the solubility at 120 min in data set [2] (fasting state simulated intestinal fluid (FaSSIF), thermodynamic from solid, 120 min, read-out: Conc (solubility)) was 110 µg/mL (≈ 254 µM). Moreover, the solubility at 180 min in data set [2] (fasting state simulated intestinal fluid (FaSSIF), thermodynamic from solid, 180 min, read-out: Conc (solubility)) was 110 µg/mL (≈ 255 µM). In data set [2] (fasting state simulated intestinal fluid (FaSSIF), thermodynamic from solid, 270 min, read-out: Conc (solubility)), the solubility at 270 min is 116 µg/mL (≈ 267 µM). The solubility at 300 min in data set [2] (fasting state simulated intestinal fluid (FaSSIF), thermodynamic from solid, 300 min, read-out: Conc (solubility)) is 115 µg/mL (≈ 266 µM). In addition, the “coefficient of variation (CV) of average area under the curve (AUC)” value in data set [3] (male, beagle, dog, in vivo, po, 5 mg/kg) was 50%.

The term solubility denotes the dissolved amount per volume that the medium holds.
